{"source": "patent US20010048926A1", "about": "“SYNTHETIC PEPTIDE VACCINES FOR DENTAL CARIES” (priority 1992, published 2001)", "key": {"[1]": {"test_system": "S. sobrinus GTF", "assay": "Antibody inhibition of glucan synthesis (filter assay, 14C glucose incorporation into water-insoluble glucan)", "type": "biochemical, S. sobrinus strain 6715", "excerpt": "Glucosyltransferases: Glucosyltransferases (GTF) from S. sobrinus strain 6715 were purified from culture supernatants after bacterial growth in glucose-containing defined media, as described in Taubman et al. (J. Oral Pathol. 17:466-470 (1988)). Enzymes were separated from other culture supernatant proteins by affinity chromatography on Sephadex G-100 (Pharmacia Fine Chemicals), using 6M guanidine HCl as the eluting solvent. GTFs were then obtained from the guanidine HCl eluate by FPLC chromatography on Superose 6 (Pharmacia) using 6M guanidine for elution. GTF preparations contained a mixture of GTF-I, GTF-Sd, and GTF-Si.\nAntibody Inhibition of Glucan Synthesis: Selected rat sera were evaluated for their ability to inhibit glucan synthesis catalyzed by S. sobrinus GTF, using a filter assay. Ten μl volumes of sera (1:100 dilutions in 0.02M sodium phosphate buffered saline and 0.02% sodium azide [PBSA], pH 6.5) were preincubated with the respective GTF for 1 hour at 37° C. in a total volume of 0.04 ml PBSA. Then 1.7 mg sucrose, 44 nCi of [^14C-glucose]-sucrose (approximately 100,000 cpm) were added in 0.2 ml PESA in the presence of 37 μg of dextran T10 (Pharmacia). Incubation proceeded for 18 hours at 37° C., after which water-insoluble glucan was collected on Whatman GF/F glass fiber filters, washed with PBSA, and radioactivity determined as described in Smith et al. (Infect. Immunity 62:5470-5476 (1994))."}, "[2]": {"test_system": "inducing peptide construct", "assay": "ELISA of salivary IgA antibody to the inducing (homologous) peptide construct in immunized rats", "type": "in vivo, Sprague Dawley rats", "conditions": "for rats with significant levels of salivary IgA antibody: GGY- and AND-injected rats counted together; for Salivary IgA antibody levels to GGY: pre-infection saliva", "description": "Immunogenicity of Peptides: Sprague Dawley CD strain 43 day-old male rats (Charles River Laboratories) were used for injection. Six groups of 4-5 rats were injected subcutaneously in the vicinity of the salivary glands with 50 μg each of GGY, AND, SAND or CAT peptide constructs, 10 μg of GTF, or sham-immunized with buffer alone. The initial injection included complete Freund adjuvant (CFA; Difco); two subsequent injections at 21-day intervals included incomplete Freund adjuvant. Animals were bled prior to injection and 14-21 days after each injection. Serum from coagulated and centrifuged blood was stored frozen at −20° C. until use.\nELISA: Serum IgG and salivary IgA antibodies were tested by enzyme-linked immunosorbent assay (ELISA). Polystyrene microtiter plates (Flow Laboratories) were coated with […] of each peptide construct or 0.5 μg of S. sobrinus GTF. Antibody activity was then measured by incubation with 1:100 to 1:10^6 dilutions of sera, or 1:4 to 1:32 dilutions of saliva. Plates were then developed for IgG antibody rabbit anti-rat IgG followed in sequence by alkaline phosphatase goat anti-rabbit IgG (Biosource Inc.) and p-nitrophenylphosphate (Sigma). A mouse monoclonal reagent to rat α chain (Zymed, South San Francisco, Calif.) was used with biotinylated goat anti-mouse IgG (TAGO, Inc., Burlingame, Calif.) and avidin-alkaline phosphatase (Cappel) to reveal levels of salivary IgA antibody to peptides. Reactivity was recorded as absorbance (A405 nm) in a micro plate reader (Biotek Instruments). Data are reported as absorbance (A405 nm), reciprocal titer, or as ELISA units (EU) which were calculated relative to the levels of appropriate reference sera or salivas from Sprague Dawley rats thrice immunized with the respective peptide construct. Dilutions of 1:12,800 and 1:6,400 (A405 nm approximately 1.0) were considered 100 EU for serum IgG to the GGY and AND constructs, respectively. Dilutions of 1:32 were considered 100 EU for salivary IgA to both GGY and AND constructs.\n(§1) Two experiments were performed. Groups (n=11-12) of 23-26 day-old rats were subcutaneously (sc) injected in the salivary gland vicinity with (experiment 1) GGY (50 μg), AND (50 μg) or GTF(10 μg), or phosphate buffered saline (control animals), or (experiment 2) GGY (50 ;μg) or PBS. Each antigen was incorporated with complete Freund adjuvant in both experiments. Eight (experiment 1) or 14 (experiment 2) days later, rats were reinjected with PBS or with the same antigen and dose in incomplete Freund adjuvant. Six (experiment 1) or 12 (experiment 2) days after the second injection, animals were bled from the tail vein, and saliva was collected after injection of pilocarpine (1.0 mg/100 g body weight). Fourteen (experiment 1) or 11 (experiment 2) days after the second injection, all rats were orally infected with approximately 10^8 S. mutans for 3 consecutive days. Both experiments were terminated 63 days after initial infection.\nTwo experiments were performed to measure the effect of immunization with the eight-branched GGY and AND peptide constructs on experimental dental caries in the Sprague-Dawley rat. In the first experiment, groups of rats were immunized with GGY or AND peptide constructs. In the second experiment groups of rats were immunized only with the GGY peptide construct. Pre-infection sera and salivas were collected for antibody measurement in 39 day old rats in experiment 1 (6 days after the second injection) and 51 day old rats in experiment 2 (12 days after the second injection). In the GGY-immunized rat groups, IgG antibody levels to GGY (experiment 1=21.9+17.8 EU; experiment 2=108.0±4.0 EU) were elevated above those of the sham-immunized groups (experiment 1=1.7±0.2 EU; experiment 2=4.0±3.0 EU) in both experiments and reached statistical significance (p<0.002) in experiment 2."}, "[3]": {"test_system": "S. mutans SJ32", "assay": "Protection experiments: caries assessment (modified Keyes method) after S. mutans infection", "type": "in vivo, Sprague-Dawley rats", "excerpt": "Experimental Protocol for Protection Experiments: Animals used in the present experiments were derived from germ-free Sprague-Dawley rats that had been reared in the isolator facility of Charles River Laboratories, Wilmington, Mass. (Area 051). […] These rats served as initial breeding stock for dams used in these experiments and were regularly monitored for absence of mutans streptococci. The progeny of the dams used for the present experiments were weaned at approximately 21 days and were subsequently fed high sucrose Diet 2000.\nas §1\nCaries assessment: The extent and depth of carious lesions in all rat molar teeth (caries score) were microscopically evaluated by a modified Keyes method as previously described (Taubman et al., J. Immunol. 118:710-720 (1977)). Caries scores were determined separately on smooth and on sulcal dental surfaces."}}}
{"sequence": "GGYEFLLANDVDNSNPVVQ", "values": [{"measurement": "inhibition of formation of water-insoluble glucan from sucrose by S. sobrinus GTF (in words)", "setting": "[1]; 63 day sera from injected rats, AND p<0.01, FIG. 5", "result": "more variable"}, {"measurement": "inhibition of GTF activity", "setting": "[1]; one rat serum, 63 day, relative to mean of sham sera", "result": 35, "unit": "%"}, {"measurement": "rats with significant levels of salivary IgA antibody", "setting": "[2]; day 21 (one injection)", "result": "7/9"}, {"measurement": "rats with significant levels of salivary IgA antibody", "setting": "[2]; day 63 (three injections)", "result": "8/9"}, {"measurement": "Salivary IgA antibody levels to GGY", "setting": "[2]; protection experiment 1, 39 day old rats", "result": "5.0±2.0", "unit": "EU"}, {"measurement": "Salivary IgA antibody levels to GGY", "setting": "[2]; protection experiment 2, 51 day old rats", "result": "11.7±4.8", "unit": "EU"}, {"measurement": "mean and median total, smooth surface, and occlusal caries scores vs sham-injected group", "setting": "[3]; both experiments", "result": "lower than the respective scores of the sham-injected group"}, {"measurement": "Total molar caries scores vs sham-injected groups", "setting": "[3]; both experiments, p<0.05", "result": "significantly lower"}, {"measurement": "smooth surface caries vs sham-injected group", "setting": "[3]; experiment 1, GGY p<0.032, GTF p<0.045", "result": "Protection was most evident on smooth surfaces"}, {"measurement": "smooth surface caries vs sham-injected group", "setting": "[3]; experiment 2, p<0.027", "result": "Protection was most evident on smooth surfaces"}, {"measurement": "protection after infection of rats with cariogenic S. mutans", "setting": "[3]; summary statement", "result": "significant protection"}]}
